According to patent US20260294922A1, “Inhibitors of JUN N-Terminal Kinases (JNK1, JNK2, and/or JNK3) and Mitogen-Activated Protein Kinases (MAPK8, MAPK9, and/or MAPK10) and Methods of Using Same” (Baylor College of Medicine, priority 2023, published 2026):
In brackets after ≈: the same amount, converted by molar mass.

Tests used:
[1] = In vitro metabolism in human liver microsomes; conditions: human, microsomes
Method: The target product profile seeks to deliver JNK inhibitor as a once daily oral administration. To prioritize compounds for further development, in vitro metabolism of several CDD JNK inhibitors were determined to approximate the plasma half-life and the rate of metabolism of the compounds in vivo.

[2] = biological target: T1, DYRK2 (Homo sapiens, UniProt Q92630); test: ThermoFisher SelectScreen, DYRK2; type: binding; conditions: Table 4
T1 construct: purchased ThermoFisher (SelectScreen)
T1 sequence (Q92630 1-601): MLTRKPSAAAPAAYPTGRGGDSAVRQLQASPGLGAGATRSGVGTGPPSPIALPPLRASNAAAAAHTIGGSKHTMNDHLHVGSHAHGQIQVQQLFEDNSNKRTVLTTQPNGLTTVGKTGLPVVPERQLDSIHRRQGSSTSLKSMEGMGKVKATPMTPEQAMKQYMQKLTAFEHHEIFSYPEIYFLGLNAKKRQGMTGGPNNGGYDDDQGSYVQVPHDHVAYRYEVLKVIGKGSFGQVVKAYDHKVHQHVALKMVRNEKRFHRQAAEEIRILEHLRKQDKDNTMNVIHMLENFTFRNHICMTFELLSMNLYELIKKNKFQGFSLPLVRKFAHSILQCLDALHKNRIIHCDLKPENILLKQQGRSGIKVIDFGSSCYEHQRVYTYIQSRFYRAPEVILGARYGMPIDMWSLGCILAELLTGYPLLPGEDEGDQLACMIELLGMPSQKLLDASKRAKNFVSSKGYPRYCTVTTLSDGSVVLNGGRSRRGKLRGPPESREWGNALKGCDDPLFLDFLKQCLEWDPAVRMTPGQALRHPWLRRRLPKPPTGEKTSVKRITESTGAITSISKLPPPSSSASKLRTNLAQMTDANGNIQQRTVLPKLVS
Method: (§1) To mitigate violation of the linear initial velocity principle, which is a problem in end-point assays when doing dose-responses, the enzyme concentration was carefully optimized, in a total assay volume of 25 μL. The assay was performed using 10 μM ATP, 0.02% Tween-20, kinase buffer from Cell Signaling (#9802) in white 384-well plates. The kinase reaction was done for 30 or 60 min at 30° C., and detection of leftover ATP was measured according to Promega's protocol. […] Fractional activities were obtained from normalized data. Non-linear regression (GraphPad Prism7) and a modified Morrison equation for tight binding was used to determine apparent Ki values for inhibitors, assuming no particular mode of inhibition. An orthogonal binding assay (LanthaScreen) was outsourced to ThermoFisher Scientific's SelectScreen Services to determine IC50 values.
(§2) One of the earliest compounds to be synthesized with favorable enzymatic activity towards JNK1 and JNK3 was CDD-2346. A KINOMEscan was performed for CDD-2346 to establish whether the selectivity of this chemical scaffold was suitable or required optimization. […] To confirm that the activity against each kinase was a true result and not a false positive, CDD-2346 was evaluated in kinase assays using ThermoFisher SelectScreen platform. The results from these assays are provided herein (Table 4). The important innovative steps described are the optimization of selectivity a) for JNK isoforms; b) for kinases considered “in-pathway”; and c) to avoid kinases considered “out-of-pathway”.

[3] = biological target: T2, CSNK1D (Homo sapiens, UniProt P48730); test: ThermoFisher SelectScreen, CSNK1D; type: binding
T2 construct: purchased ThermoFisher (SelectScreen)

[4] = biological target: T3, JNK1 (Homo sapiens, UniProt P45983); test: JNK1 kinase (intrinsic ATPase, Kinase-Glo) assay; type: biochemical
Summary of the method: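 Full-length construct not stated; kinases hydrolyse ATP without peptide substrate, reaction run 30 or 60 min at 30° C, remaining ATP read by Kinase-Glo luminescence with no-kinase controls. Apparent Ki from normalized fractional activities fitted to modified Morrison tight-binding equation; orthogonal LanthaScreen binding assay gave IC50.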

[5] = biological target: T4, JNK2 (Homo sapiens, UniProt P45984); test: Promega NanoBRET intracellular target engagement (tracer K10 displacement), JNK2; type: cell-based
[6] = biological target: T5, PIP5K1C (Homo sapiens, UniProt O60331); test: ThermoFisher SelectScreen, PIP5K1C; type: binding; conditions: Table 4
T5 construct: purchased ThermoFisher (SelectScreen, outsourced service)
Method: as §1, §2

[7] = biological target: JNK3 (Homo sapiens, UniProt P53779); test: Promega NanoBRET intracellular target engagement (tracer K10 displacement), JNK3; type: cell-based
[8] = biological target: T6, MEK4 (Homo sapiens, UniProt P45985); test: ThermoFisher SelectScreen, MEK4; type: binding
T6 construct: purchased ThermoFisher (SelectScreen)
T6 sequence (P45985 1-399): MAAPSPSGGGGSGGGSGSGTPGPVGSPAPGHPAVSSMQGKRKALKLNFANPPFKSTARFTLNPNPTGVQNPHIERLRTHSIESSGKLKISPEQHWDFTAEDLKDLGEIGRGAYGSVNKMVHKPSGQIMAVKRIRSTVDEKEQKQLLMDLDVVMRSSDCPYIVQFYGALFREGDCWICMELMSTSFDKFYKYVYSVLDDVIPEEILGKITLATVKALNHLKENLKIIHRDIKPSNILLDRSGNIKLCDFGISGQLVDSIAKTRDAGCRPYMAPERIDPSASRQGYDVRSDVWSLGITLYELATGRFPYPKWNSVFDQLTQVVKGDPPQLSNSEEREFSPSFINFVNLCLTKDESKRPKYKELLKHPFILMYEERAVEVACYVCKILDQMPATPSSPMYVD

[9] = biological target: T7, MYLK (Homo sapiens, UniProt Q15746); test: ThermoFisher SelectScreen, MYLK; type: binding; conditions: Table 4
T7 construct: purchased ThermoFisher (SelectScreen, outsourced service)
Method: as §1, §2

[10] = Solubility
[11] = biological target: T3, JNK1; test: Promega NanoBRET intracellular target engagement (tracer K10 displacement), JNK1; type: cell-based
[12] = biological target: T4, JNK2; test: JNK2 kinase (intrinsic ATPase, Kinase-Glo) assay; type: biochemical; conditions: Table 3a; read-out: Kd JNK2
[13] = biological target: T8, CSNK1E (Homo sapiens, UniProt P49674); test: ThermoFisher SelectScreen, CSNK1E; type: binding
T8 construct: purchased ThermoFisher (SelectScreen)
T8 sequence (P49674 whole entry): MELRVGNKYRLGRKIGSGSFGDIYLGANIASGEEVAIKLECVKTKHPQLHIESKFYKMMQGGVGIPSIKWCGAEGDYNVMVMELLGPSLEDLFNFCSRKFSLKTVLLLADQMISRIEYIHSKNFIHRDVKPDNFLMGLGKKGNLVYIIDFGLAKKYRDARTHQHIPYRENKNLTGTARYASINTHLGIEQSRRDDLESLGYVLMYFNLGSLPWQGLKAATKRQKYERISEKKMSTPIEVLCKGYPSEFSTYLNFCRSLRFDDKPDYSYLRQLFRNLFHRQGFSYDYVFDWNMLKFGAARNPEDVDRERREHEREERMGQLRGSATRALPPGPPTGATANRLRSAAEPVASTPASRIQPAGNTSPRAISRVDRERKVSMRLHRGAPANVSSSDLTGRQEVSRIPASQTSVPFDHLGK

T4 sequence (P45984 whole entry): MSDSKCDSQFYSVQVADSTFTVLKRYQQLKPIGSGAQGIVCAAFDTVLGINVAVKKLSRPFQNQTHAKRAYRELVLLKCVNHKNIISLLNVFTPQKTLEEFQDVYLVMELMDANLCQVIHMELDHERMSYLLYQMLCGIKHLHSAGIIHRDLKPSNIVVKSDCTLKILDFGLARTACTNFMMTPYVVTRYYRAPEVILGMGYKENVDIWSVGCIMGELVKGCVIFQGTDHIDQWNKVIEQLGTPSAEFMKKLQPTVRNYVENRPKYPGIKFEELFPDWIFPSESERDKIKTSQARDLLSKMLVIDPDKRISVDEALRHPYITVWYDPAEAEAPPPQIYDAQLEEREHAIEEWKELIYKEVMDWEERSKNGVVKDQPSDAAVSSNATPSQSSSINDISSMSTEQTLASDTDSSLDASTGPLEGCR
JNK3, sequence (P53779 whole entry): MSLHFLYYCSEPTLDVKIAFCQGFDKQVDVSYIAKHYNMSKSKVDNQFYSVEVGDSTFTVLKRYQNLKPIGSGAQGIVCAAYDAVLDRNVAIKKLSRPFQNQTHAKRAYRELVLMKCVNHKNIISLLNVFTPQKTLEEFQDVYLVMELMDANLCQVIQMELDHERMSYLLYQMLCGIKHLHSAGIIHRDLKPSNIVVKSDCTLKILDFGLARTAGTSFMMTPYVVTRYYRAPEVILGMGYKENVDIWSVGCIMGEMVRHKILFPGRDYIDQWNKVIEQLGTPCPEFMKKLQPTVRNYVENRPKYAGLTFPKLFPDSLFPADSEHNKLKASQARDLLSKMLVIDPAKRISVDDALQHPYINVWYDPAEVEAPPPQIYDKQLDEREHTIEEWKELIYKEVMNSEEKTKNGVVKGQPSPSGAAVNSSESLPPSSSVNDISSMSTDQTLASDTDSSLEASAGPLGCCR
T2 sequence (P48730 whole entry): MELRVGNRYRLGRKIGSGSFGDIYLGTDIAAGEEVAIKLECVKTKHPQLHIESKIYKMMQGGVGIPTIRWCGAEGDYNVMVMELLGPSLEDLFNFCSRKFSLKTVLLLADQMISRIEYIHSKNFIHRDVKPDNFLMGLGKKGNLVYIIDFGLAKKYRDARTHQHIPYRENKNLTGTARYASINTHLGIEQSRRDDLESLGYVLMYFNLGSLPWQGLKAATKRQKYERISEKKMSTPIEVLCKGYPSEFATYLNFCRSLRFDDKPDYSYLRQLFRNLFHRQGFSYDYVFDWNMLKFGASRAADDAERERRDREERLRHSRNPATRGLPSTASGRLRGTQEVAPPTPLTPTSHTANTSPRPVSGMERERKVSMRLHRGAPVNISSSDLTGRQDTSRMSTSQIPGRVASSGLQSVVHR
T3 sequence (P45983 whole entry): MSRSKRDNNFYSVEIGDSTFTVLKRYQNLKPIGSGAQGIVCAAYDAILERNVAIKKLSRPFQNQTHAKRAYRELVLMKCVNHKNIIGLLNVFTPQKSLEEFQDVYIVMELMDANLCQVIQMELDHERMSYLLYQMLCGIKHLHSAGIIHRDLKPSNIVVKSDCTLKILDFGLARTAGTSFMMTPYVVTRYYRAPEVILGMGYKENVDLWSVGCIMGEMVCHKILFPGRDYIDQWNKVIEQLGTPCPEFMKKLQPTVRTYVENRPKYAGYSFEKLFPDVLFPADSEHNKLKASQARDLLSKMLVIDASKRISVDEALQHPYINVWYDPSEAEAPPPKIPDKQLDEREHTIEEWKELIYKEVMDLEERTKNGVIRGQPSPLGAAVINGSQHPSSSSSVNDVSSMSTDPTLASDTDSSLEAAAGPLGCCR
T5 sequence (O60331 whole entry): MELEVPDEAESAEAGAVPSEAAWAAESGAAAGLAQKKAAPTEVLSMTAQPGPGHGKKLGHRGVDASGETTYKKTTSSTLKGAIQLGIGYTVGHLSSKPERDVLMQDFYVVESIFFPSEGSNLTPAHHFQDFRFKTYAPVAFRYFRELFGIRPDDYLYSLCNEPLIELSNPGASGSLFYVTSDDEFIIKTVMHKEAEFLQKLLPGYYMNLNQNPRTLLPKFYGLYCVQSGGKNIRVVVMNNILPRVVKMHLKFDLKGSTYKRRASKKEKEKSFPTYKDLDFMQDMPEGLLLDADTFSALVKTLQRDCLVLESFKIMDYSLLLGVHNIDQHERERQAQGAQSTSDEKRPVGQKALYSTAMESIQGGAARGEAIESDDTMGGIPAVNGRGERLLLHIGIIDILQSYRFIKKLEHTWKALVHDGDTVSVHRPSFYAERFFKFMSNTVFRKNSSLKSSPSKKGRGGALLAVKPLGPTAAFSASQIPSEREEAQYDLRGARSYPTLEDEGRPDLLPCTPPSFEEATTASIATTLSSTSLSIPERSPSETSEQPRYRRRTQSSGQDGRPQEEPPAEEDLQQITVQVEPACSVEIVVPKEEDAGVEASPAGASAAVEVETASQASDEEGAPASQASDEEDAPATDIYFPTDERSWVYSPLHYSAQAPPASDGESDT
T7 sequence (Q15746 whole entry): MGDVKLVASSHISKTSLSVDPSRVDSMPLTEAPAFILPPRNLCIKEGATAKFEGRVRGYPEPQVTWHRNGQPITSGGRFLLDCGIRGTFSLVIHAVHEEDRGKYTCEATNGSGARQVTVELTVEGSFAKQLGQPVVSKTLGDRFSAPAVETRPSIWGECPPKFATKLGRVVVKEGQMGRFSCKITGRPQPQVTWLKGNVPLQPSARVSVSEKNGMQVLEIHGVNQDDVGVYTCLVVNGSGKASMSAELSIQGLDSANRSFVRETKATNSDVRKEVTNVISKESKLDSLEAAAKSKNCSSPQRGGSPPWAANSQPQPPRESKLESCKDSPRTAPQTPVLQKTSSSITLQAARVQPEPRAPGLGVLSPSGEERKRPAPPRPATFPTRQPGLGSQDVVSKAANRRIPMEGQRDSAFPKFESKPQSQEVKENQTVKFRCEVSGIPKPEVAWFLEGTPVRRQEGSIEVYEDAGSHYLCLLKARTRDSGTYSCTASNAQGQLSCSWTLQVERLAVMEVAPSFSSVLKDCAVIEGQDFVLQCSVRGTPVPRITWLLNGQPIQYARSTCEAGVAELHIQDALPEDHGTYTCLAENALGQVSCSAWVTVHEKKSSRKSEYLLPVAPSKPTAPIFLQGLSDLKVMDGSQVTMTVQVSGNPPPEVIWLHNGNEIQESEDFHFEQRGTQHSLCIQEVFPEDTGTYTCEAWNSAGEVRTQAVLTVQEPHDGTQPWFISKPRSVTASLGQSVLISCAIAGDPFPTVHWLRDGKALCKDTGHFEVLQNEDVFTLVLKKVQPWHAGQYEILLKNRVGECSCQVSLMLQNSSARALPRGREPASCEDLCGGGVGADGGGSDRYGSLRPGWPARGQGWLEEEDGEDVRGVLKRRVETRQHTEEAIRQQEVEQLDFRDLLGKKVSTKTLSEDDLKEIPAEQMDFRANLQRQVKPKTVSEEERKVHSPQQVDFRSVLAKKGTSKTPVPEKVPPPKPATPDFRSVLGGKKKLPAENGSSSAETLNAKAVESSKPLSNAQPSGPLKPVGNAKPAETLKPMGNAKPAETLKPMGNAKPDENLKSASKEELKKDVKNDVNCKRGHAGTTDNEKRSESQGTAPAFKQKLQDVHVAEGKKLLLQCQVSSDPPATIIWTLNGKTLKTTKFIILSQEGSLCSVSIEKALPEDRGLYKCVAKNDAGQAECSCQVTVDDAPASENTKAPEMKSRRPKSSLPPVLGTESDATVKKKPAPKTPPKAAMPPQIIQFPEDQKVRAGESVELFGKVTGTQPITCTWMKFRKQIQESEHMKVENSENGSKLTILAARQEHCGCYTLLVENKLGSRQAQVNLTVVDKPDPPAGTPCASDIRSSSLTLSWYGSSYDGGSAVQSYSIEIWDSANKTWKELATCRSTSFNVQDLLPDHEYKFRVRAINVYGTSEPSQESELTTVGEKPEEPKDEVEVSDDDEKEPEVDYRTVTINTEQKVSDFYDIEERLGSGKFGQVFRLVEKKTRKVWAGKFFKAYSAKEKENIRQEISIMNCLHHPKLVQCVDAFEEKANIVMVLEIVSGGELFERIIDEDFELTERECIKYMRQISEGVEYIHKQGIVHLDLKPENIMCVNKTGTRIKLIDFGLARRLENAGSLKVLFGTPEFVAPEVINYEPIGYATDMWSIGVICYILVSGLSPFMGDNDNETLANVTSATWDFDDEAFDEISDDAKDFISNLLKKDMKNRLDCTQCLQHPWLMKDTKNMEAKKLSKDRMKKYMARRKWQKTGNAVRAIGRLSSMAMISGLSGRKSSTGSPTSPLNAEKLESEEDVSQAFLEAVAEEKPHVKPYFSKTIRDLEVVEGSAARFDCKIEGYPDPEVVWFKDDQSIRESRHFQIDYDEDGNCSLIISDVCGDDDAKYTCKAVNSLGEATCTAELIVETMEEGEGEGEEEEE

half-life [1]	Kd [2]	Kd [3]	Kd [4]	IC50 [5]	Kd [6]	IC50 [7]	Kd [8]	Kd [9]	solubility [10]	IC50 [11]	Kd [12]	Kd [13]	inhibition of binding to JNK1, JNK2, and JNK3 relative to staurosporine ([11]; NanoBRET)	improvement of NanoBRET IC50 for JNK1 (CDD-2346/CDD-2728) ([11]; relative to CDD-2346)	SMILES
0.565 h	288 nM	2350 nM	1.7 ± 0.2 nM	442 nM	1150 nM	468 nM	26.2 nM	942 nM	0.3 µM (≈ 0.111 µg/mL)	770 nM	0.67 ± 0.09 nM	235 nM			O=C(Nc1ccc(F)cc1)c1ccn2ncc(-c3cnc4[nH]ccc4c3)c2c1 [CDD-2486, N-(4-fluorophenyl)-3-(1H-pyrrolo[2,3-b]pyridin-5-yl)pyrazolo[1,5-a]pyridine-5-carboxamide]
3.14 h	78 nM	55 nM	0.23 ± 0.08 nM	1700 nM	811 nM	3000 nM	18 nM	442 nM	167 µM (≈ 66.1 µg/mL)	5100 nM	0.94 ± 0.22 nM	48 nM	superior to staurosporine		CNCc1ccc(NC(=O)c2ccn3ncc(-c4cnc5[nH]ccc5c4)c3c2)cc1 [CDD-2346, N-(4-((methylamino)methyl)phenyl)-3-(1H-pyrrolo[2,3-b]pyridin-5-yl)pyrazolo[1,5-a]pyridine-5-carboxamide]
2.89 h		821 nM	0.24 ± 0.05 nM	570 nM		534 nM	18 nM		19.4 µM (≈ 8.86 µg/mL)	599 nM		1070 nM		8.5 fold	CN(C)C(=O)c1cc(NC(=O)c2cc3c(-c4cnc5[nH]ccc5c4)cccc3s2)ccc1O [CDD-2728, N-(3-(dimethylcarbamoyl)-4-hydroxyphenyl)-4-(1H-pyrrolo[2,3-b]pyridin-5-yl)benzo[b]thiophene-2-carboxamide]
0.945 h	48 nM	30 nM	0.25 ± 0.04 nM		13200 nM		9 nM	501 nM	176 µM (≈ 72.2 µg/mL)		0.74 ± 0.09 nM	29 nM			CN(C)Cc1ccc(NC(=O)c2ccn3ncc(-c4cnc5[nH]ccc5c4)c3c2)cc1 [CDD-2482, N-(4-((dimethylamino)methyl)phenyl)-3-(1H-pyrrolo[2,3-b]pyridin-5-yl)pyrazolo[1,5-a]pyridine-5-carboxamide]
